In ChEMBL document CHEMBL4138123, “Design, synthesis and biological evaluation of novel pyrazolochalcones as potential modulators of PI3K/Akt/mTOR pathway and inducers of apoptosis in breast cancer cells” (Eur J Med Chem, 2017):

Legend:
Type in all cases: functional
[1] = test system: DU-145; test: Cytotoxicity against human DU145 cells assessed as cell growth at 10 uM after 48 hrs by sulforhodamine B assay relative to control; settings: DU-145, 48 h, read-out: Activity
[2] = test system: UACC-257; test: Cytotoxicity against human UACC257 cells assessed as cell growth at 0.1 uM after 48 hrs by sulforhodamine B assay relative to control; settings: UACC-257, 48 h, read-out: Activity
[3] = test system: COLO 205; test: Cytotoxicity against human COLO205 cells assessed as cell growth at 100 uM after 48 hrs by sulforhodamine B assay relative to control; settings: COLO 205, 48 h, read-out: Activity
[4] = test system: K562; test: Cytotoxicity against human K562 cells assessed as growth inhibition after 48 hrs by sulforhodamine B assay; settings: K562, 48 h
[5] = test system: NCI-H460; test: Cytotoxicity against human NCI-H460 cells assessed as growth inhibition after 48 hrs by sulforhodamine B assay; settings: NCI-H460, 48 h
[6] = test system: SW-620; test: Cytotoxicity against human SW620 cells assessed as cell growth at 1 uM after 48 hrs by sulforhodamine B assay relative to control; settings: SW-620, 48 h, read-out: Activity
[7] = test system: HCT-116; test: Cytotoxicity against human HCT116 cells assessed as cell growth at 1 uM after 48 hrs by sulforhodamine B assay relative to control; settings: HCT-116, 48 h, read-out: Activity
[8] = test system: HL-60(TB); test: Cytotoxicity against human HL-60(TB) cells assessed as cell growth at 10 uM after 48 hrs by sulforhodamine B assay relative to control; settings: HL-60, 48 h, read-out: Activity
[9] = test system: SF-268; test: Cytotoxicity against human SF268 cells assessed as growth inhibition after 48 hrs by sulforhodamine B assay; settings: SF-268, 48 h; for CC50: read-out: LC50 (the source's name)
[10] = test system: MOLT-4; test: Cytotoxicity against human MOLT4 cells assessed as cell growth at 0.01 uM after 48 hrs by sulforhodamine B assay relative to control; settings: MOLT-4, 48 h, read-out: Activity
[11] = test system: CCRF-CEM; test: Cytotoxicity against human CCRF-CEM cells assessed as growth inhibition after 48 hrs by sulforhodamine B assay
[12] = test system: SR; test: Cytotoxicity against human SR cells assessed as growth inhibition after 48 hrs by sulforhodamine B assay; settings: for CC50: read-out: LC50 (the source's name)
[13] = test system: HT-29; test: Cytotoxicity against human HT-29 cells assessed as cell growth at 0.01 uM after 48 hrs by sulforhodamine B assay relative to control; settings: HT-29, 48 h, read-out: Activity
[14] = test system: NCI-H322M; test: Cytotoxicity against human NCI-H322M cells assessed as cell growth at 1 uM after 48 hrs by sulforhodamine B assay relative to control; settings: read-out: Activity
[15] = test system: T47D; test: Cytotoxicity against human T47D cells assessed as cell growth at 0.01 uM after 48 hrs by sulforhodamine B assay relative to control; settings: read-out: Activity
[16] = test system: OVCAR-5; test: Cytotoxicity against human OVCAR5 cells assessed as cell growth at 0.01 uM after 48 hrs by sulforhodamine B assay relative to control; settings: OVCAR-5, 48 h, read-out: Activity
[17] = test system: DU-145; test: Cytotoxicity against human DU145 cells assessed as cell growth at 0.1 uM after 48 hrs by sulforhodamine B assay relative to control; settings: DU-145, 48 h, read-out: Activity
[18] = test system: RPMI-8226; test: Cytotoxicity against human RPMI8226 cells assessed as cell growth at 10 uM after 48 hrs by sulforhodamine B assay relative to control; settings: RPMI-8226, 48 h, read-out: Activity
[19] = test system: OVCAR-5; test: Cytotoxicity against human OVCAR5 cells assessed as growth inhibition after 48 hrs by sulforhodamine B assay; settings: OVCAR-5, 48 h
[20] = test system: RPMI-8226; test: Cytotoxicity against human RPMI8226 cells assessed as growth inhibition after 48 hrs by sulforhodamine B assay; settings: RPMI-8226, 48 h
[21] = test system: 786-0; test: Cytotoxicity against human 786-0 cells assessed as cell growth at 0.1 uM after 48 hrs by sulforhodamine B assay relative to control; settings: 786-0, 48 h, read-out: Activity
[22] = test system: Hs-578T; test: Cytotoxicity against human Hs 578T cells assessed as cell growth at 1 uM after 48 hrs by sulforhodamine B assay relative to control; settings: read-out: Activity
[23] = test system: M14; test: Cytotoxicity against human M14 cells assessed as growth inhibition after 48 hrs by sulforhodamine B assay; settings: M14, 48 h
[24] = test system: HOP-62; test: Cytotoxicity against human HOP62 cells assessed as cell growth at 1 uM after 48 hrs by sulforhodamine B assay relative to control; settings: HOP-62, 48 h, read-out: Activity
[25] = test system: ACHN; test: Cytotoxicity against human ACHN cells assessed as cell growth at 10 uM after 48 hrs by sulforhodamine B assay relative to control; settings: read-out: Activity
[26] = test system: RPMI-8226; test: Cytotoxicity against human RPMI8226 cells assessed as cell growth at 1 uM after 48 hrs by sulforhodamine B assay relative to control; settings: RPMI-8226, 48 h, read-out: Activity
[27] = test system: HL-60(TB); test: Cytotoxicity against human HL-60(TB) cells assessed as cell growth at 1 uM after 48 hrs by sulforhodamine B assay relative to control; settings: HL-60, 48 h, read-out: Activity
[28] = test system: HCC 2998; test: Cytotoxicity against human HCC2998 cells assessed as cell growth at 0.1 uM after 48 hrs by sulforhodamine B assay relative to control; settings: HCC 2998, 48 h, read-out: Activity
[29] = test system: T47D; test: Cytotoxicity against human T47D cells assessed as cell growth at 0.1 uM after 48 hrs by sulforhodamine B assay relative to control; settings: read-out: Activity
[30] = test system: HCT-116; test: Cytotoxicity against human HCT116 cells assessed as growth inhibition after 48 hrs by sulforhodamine B assay; settings: HCT-116, 48 h
[31] = test system: NCI-H23; test: Cytotoxicity against human NCI-H23 cells assessed as growth inhibition after 48 hrs by sulforhodamine B assay; settings: NCI-H23, 48 h; for CC50: read-out: LC50 (the source's name)
[32] = test system: PC-3; test: Cytotoxicity against human PC3 cells assessed as cell growth at 0.1 uM after 48 hrs by sulforhodamine B assay relative to control; settings: PC-3, 48 h, read-out: Activity
[33] = test system: COLO 205; test: Cytotoxicity against human COLO205 cells assessed as cell growth at 0.01 uM after 48 hrs by sulforhodamine B assay relative to control; settings: COLO 205, 48 h, read-out: Activity
[34] = test system: SK-MEL-5; test: Cytotoxicity against human SK-MEL-5 cells assessed as growth inhibition after 48 hrs by sulforhodamine B assay; settings: SK-MEL-5, 48 h
[35] = test system: OVCAR-3; test: Cytotoxicity against human OVCAR3 cells assessed as cell growth at 0.1 uM after 48 hrs by sulforhodamine B assay relative to control; settings: OVCAR-3, 48 h, read-out: Activity
[36] = test system: OVCAR-4; test: Cytotoxicity against human OVCAR4 cells assessed as cell growth at 100 uM after 48 hrs by sulforhodamine B assay relative to control; settings: OVCAR-4, 48 h, read-out: Activity

SMILES: COc1ccc(C(=O)/C=C/c2cc(-c3cc(OC)c(OC)c(OC)c3)n[nH]2)cc1OC
- growth at 10 µM [1]: -89%
- growth at 0.1 µM [2]: 89%
- growth at 100 µM [3]: -75%
- LC50 (concentration killing 50% of cells) [4]: > 100 µM
- TGI [4]: 7.12 µM
- LC50 [5]: 7.86 µM
- TGI [5]: 3.33 µM
- growth at 1 µM [6]: 70%
- growth at 1 µM [7]: 47%
- growth at 10 µM [8]: -41%
- TGI [9]: 3.96 µM
- CC50 [9]: 8.59 µM
- growth at 0.01 µM [10]: 102%
- LC50 (concentration killing 50% of cells) [11]: > 100 µM
- TGI [11]: 3.93 µM
- TGI [12]: > 100 µM
- CC50 [12]: > 100 µM
- growth at 0.01 µM [13]: 100%
- growth at 1 µM [14]: 83%
- growth at 0.01 µM [15]: 93%
- growth at 0.01 µM [16]: 101%
- growth at 0.1 µM [17]: 101%
- growth at 10 µM [18]: -50%
- LC50 [19]: 5.75 µM
- TGI [19]: 3.03 µM
- LC50 [20]: > 100 µM
- TGI [20]: 1.11 µM
- growth at 0.1 µM [21]: 94%
- growth at 1 µM [22]: 91%
- LC50 (concentration killing 50% of cells) [23]: 7.38 µM
- TGI [23]: 3.69 µM
- growth at 1 µM [24]: 77%
- growth at 10 µM [25]: -95%
- growth at 1 µM [26]: 2%
- growth at 1 µM [27]: 67%
- growth at 0.1 µM [28]: 88%
- growth at 0.1 µM [29]: 98%
- TGI [30]: 2.63 µM
- TGI [31]: 5.24 µM
- CC50 [31]: 22.7 µM
- growth at 0.1 µM [32]: 95%
- growth at 0.01 µM [33]: 107%
- LC50 (concentration killing 50% of cells) [34]: 5.59 µM
- TGI [34]: 3.03 µM
- growth at 0.1 µM [35]: 100%
- growth at 100 µM [36]: -82%

SMILES: COc1ccc(-c2cc(/C=C/C(=O)c3ccc(N)cc3)[nH]n2)cc1
- growth at 10 µM [1]: -55%
- growth at 0.1 µM [2]: 97%
- growth at 100 µM [3]: -74%
- GI50 [4]: 1.42 µM
- LC50 (concentration killing 50% of cells) [4]: 69.7 µM
- TGI [4]: 11.6 µM
- GI50 [5]: 2.07 µM
- LC50 [5]: 20.9 µM
- TGI [5]: 4.95 µM
- growth at 1 µM [6]: 72%
- growth at 1 µM [7]: 67%
- growth at 10 µM [8]: -8%
- GI50 [9]: 1.81 µM
- TGI [9]: 5.31 µM
- CC50 [9]: 45.7 µM
- growth at 0.01 µM [10]: 97%
- GI50 [11]: 1.32 µM
- LC50 (concentration killing 50% of cells) [11]: 36.1 µM
- TGI [11]: 4.91 µM
- GI50 [12]: 0.79 µM
- TGI [12]: 6.09 µM
- CC50 [12]: 60.1 µM
- growth at 0.01 µM [13]: 97%
- growth at 1 µM [14]: 69%
- growth at 0.01 µM [15]: 98%
- growth at 0.01 µM [16]: 99%
- growth at 0.1 µM [17]: 100%
- growth at 10 µM [18]: -35%
- GI50 [19]: 2.06 µM
- LC50 [19]: 16 µM
- TGI [19]: 4.92 µM
- GI50 [20]: 0.6 µM
- LC50 [20]: 29.4 µM
- TGI [20]: 3.22 µM
- growth at 0.1 µM [21]: 95%
- growth at 1 µM [22]: 93%
- GI50 [23]: 2.67 µM
- LC50 (concentration killing 50% of cells) [23]: 36.1 µM
- TGI [23]: 6.54 µM
- growth at 1 µM [24]: 102%
- growth at 10 µM [25]: 2%
- growth at 1 µM [26]: 36%
- growth at 1 µM [27]: 61%
- growth at 0.1 µM [28]: 98%
- growth at 0.1 µM [29]: 87%
- GI50 [30]: 1.38 µM
- TGI [30]: 3.61 µM
- GI50 [31]: 3.22 µM
- TGI [31]: 13.1 µM
- CC50 [31]: 68.4 µM
- growth at 0.1 µM [32]: 93%
- growth at 0.01 µM [33]: 97%
- GI50 [34]: 2.71 µM
- LC50 (concentration killing 50% of cells) [34]: 30.4 µM
- TGI [34]: 9.25 µM
- growth at 0.1 µM [35]: 96%
- growth at 100 µM [36]: -68%
